{
  "source": "paper PMC10226132",
  "about": "“First-in-Class Selective Inhibitors of the Lysine Acetyltransferase KAT8” (Journal of Medicinal Chemistry, 2023)",
  "key": {"[1]": {"molecular_target": "T1, KAT8 (Homo sapiens, UniProt Q9H7Z6)", "T1 construct": "using the previously purified KAT8 (173–458, 5 nM); 6xHis tag with TEV protease cleavage site (N, cleaved yes); made in house; host or cells: E. coli BL21(DE3)", "T1 sequence (Q9H7Z6 173-458)": "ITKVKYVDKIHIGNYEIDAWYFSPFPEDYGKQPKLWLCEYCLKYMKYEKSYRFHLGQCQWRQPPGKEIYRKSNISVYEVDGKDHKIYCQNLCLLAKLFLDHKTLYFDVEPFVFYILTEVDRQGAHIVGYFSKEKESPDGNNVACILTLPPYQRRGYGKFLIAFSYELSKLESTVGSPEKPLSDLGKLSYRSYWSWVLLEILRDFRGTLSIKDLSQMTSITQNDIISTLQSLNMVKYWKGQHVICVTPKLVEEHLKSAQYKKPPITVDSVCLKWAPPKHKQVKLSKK", "assay": "SPR-based KAT8 binding assay", "details": "immobilized KAT8, 25 °C, read-out: equilibrium dissociation constant (KD)", "method": "SPR analyses were performed on a Biacore 3000 optical biosensor (GE Healthcare) equipped with a research-grade CM5 sensor chip. KAT8 was immobilized (30 μg/mL in 10 mM sodium acetate, pH 4.5) at a flow rate of 10 μL/min by using a standard amine-coupling protocol to obtain a density of 12 kRU. One flow cell was left empty for background subtractions. Both compounds, dissolved in DMSO (100%), were diluted in assay buffer (150 mM NaCl, 10 mM HEPES pH 7.4, 0.005% Tween-20), always maintaining a final 1% DMSO concentration. Binding experiments were performed at 25 °C by using a flow rate of 30 μL/min, with 120 s monitoring of association and 200 s monitoring of dissociation. Regeneration of the surfaces was performed, when necessary, by a 10 s injection of 1 mM NaOH."}, "[2]": {"assay": "HPLC-based analysis of thiol reactivity", "assay_type": "physicochemical", "details": "0.5 mM compound, 2 mM DTT, BME or GSH, pH 7.5, 1, 8 or 24 h at room temperature", "method": "Compounds 19 and 34 were dissolved in a solution containing 100 mM NaCl and 40 mM Tris·HCl (pH 7.5) with the addition of DTT, BME, or GSH (each at 2 mM) to a final concentration of 0.5 mM and incubated for 1, 8, and 24 h at rt. HPLC analysis was then performed at three wavelengths (254, 286, and 395 nm) under the same conditions described in the “Chemistry” paragraph of the Experimental Section."}, "[3]": {"tested_on": "HT29 cells", "assay": "MTT cell proliferation assay, HT29", "assay_type": "cell-based, human", "details": "for antiproliferative activity in HT29: 10, 25, 50, 100 μM; for IC50: Homo sapiens, HT-29, 72 h treatment, MTT", "excerpt": "(§1) Human commercially available AML U937, breast cancer MCF7, lung adenocarcinoma NCI-H460, H1299 and A-549, glioblastoma U251, B lymphocyte AHH1 cell lines were maintained in compete 10% foetal bovine serum (FBS,) RPMI 1640 (Euroclone, Milan, IT) medium. Human commercially available colon cancer HCT116 and HT29 lines and cervix adenocarcinoma HeLa cells were maintained in compete 10% FBS Dulbecco’s Modified Eagle Medium (DMEM) high glucose medium (Euroclone). L-Glutamine, FBS, and penicillin streptomycin mixture added to medium were obtained from Euroclone. All cell lines were cultured at 37 °C in a humidified atmosphere of 5% CO2:95% air and were tested for mycoplasma contamination routinely by RT-PCR.\n(§2) For analysis of cell proliferation, cells were plated in sextuplicate on 96-well plates in complete media. After 24 h, cells were exposed to different drugs for 72 h. The inhibitory effect of different drugs was assessed by MTT (Sigma, St. Louis, MO, USA) colorimetric assays as previously reported.[67] Aqueous DMSO (0.5% v/v) was used as a control (untreated). The results are reported as “viability of drug-treated cells/viability of untreated cells” × 100 and represent the average ±SD of three independent experiments. IC50 values were using fitted by nonlinear regression using GraphPad Prism 8.0."}, "[4]": {"tested_on": "A549 cells", "assay": "MTT cell proliferation assay, A549", "assay_type": "cell-based, human", "details": "for antiproliferative activity in A549: 10, 25, 50, 100 μM; for IC50: 72 h treatment, MTT", "excerpt": "as §1, §2"}, "[5]": {"tested_on": "U251 cells", "assay": "MTT cell proliferation assay, U251", "assay_type": "cell-based, human", "details": "10, 25, 50, 100 μM, 72 h", "excerpt": "as §1, §2"}, "[6]": {"tested_on": "human intestinal epithelial cells (InEpC)", "assay": "Proliferation of human intestinal epithelial cells (InEpC)", "assay_type": "cell-based", "details": "25, 50, 100, 200 μM, 72 h", "method": "as §2"}, "[7]": {"tested_on": "normal human lung fibroblasts (NHLF)", "assay": "Proliferation of normal human lung fibroblasts (NHLF)", "assay_type": "cell-based", "details": "25, 50, 100, 200 μM, 72 h", "method": "as §2"}, "[8]": {"tested_on": "HCT116 cells", "assay": "Cell cycle analysis by propidium iodide staining, HCT116", "assay_type": "cell-based, human", "details": "72 h", "method": "(§3) For the analysis of the progression of cells through cell cycle phases and sub-G1 peak identification, 24 h after plating, cells were treated with the different compounds. After 72 h, both floating and adherent cells were collected and fixed with cold 70% ethanol. At least 24 h after fixation, cells were incubated with 0.025 mg/mL Propidium Iodide for 15 min at room temperature and analyzed. For Annexin V analysis, 24 h after plating, cells were treated with 50 and 100 μM of the compounds. In the case of chloroquine experiments, 10 μM chloroquine (Sigma-Aldrich, A9165) was added 30 min before compounds. 72 h after treatment, both floating and adherent cells were collected and stained with an Annexin V-FITC apoptosis detection kit (ENZO #ALX-850-020-KI). Samples were incubated 15 min in the dark at rt, and 10,000 events were then analyzed."}, "[9]": {"tested_on": "HeLa cells", "assay": "Cell cycle analysis by propidium iodide staining, HeLa", "assay_type": "cell-based, human", "details": "72 h", "method": "as §3"}, "[10]": {"tested_on": "HT29 cells", "assay": "Annexin V/PI analysis, HT29", "assay_type": "cell-based, human", "details": "50 and 100 μM, 72 h, compared to control", "method": "as §3"}, "[11]": {"tested_on": "HCT116 cells", "assay": "Annexin V/PI analysis, HCT116", "assay_type": "cell-based, human", "details": "72 h; for apoptotic effect in combination with chloroquine (Annexin V), HCT116: 100 μM compound + CQ 10 μM; for apoptotic cell population (Annexin V), HCT116: 50 and 100 μM, compared to control", "method": "as §3"}},
  "data": [
    {"smiles": "O=C(O)c1ccc(N2N=C(c3ccccc3)/C(=C/c3ccc[nH]3)C2=O)cc1", "note": "[Compound 34, (Z)-4-(4-((1H-Pyrrol-2-yl)methylene)-5-oxo-3-phenyl-4,5-dihydro-1H-pyrazol-1-yl)benzoic Acid]", "values": [
      {"measurement": "Kd", "setting": "[1]", "result": "2.04 ± 0.24", "unit": "µM"},
      {"measurement": "reaction with thiol-containing nucleophiles (HPLC)", "setting": "[2]", "result": "no evidence of reaction"},
      {"measurement": "decrease of cell viability, HT29", "setting": "[3]; 100 μM, 72 h", "result": 70, "unit": "%"},
      {"measurement": "antiproliferative activity in HT29", "setting": "[3]; 72 h", "result": "a certain degree of antiproliferative activity"},
      {"measurement": "IC50", "setting": "[3]", "result": "54 ± 10.9", "unit": "µM"},
      {"measurement": "antiproliferative activity in A549", "setting": "[4]; 72 h", "result": "dose-dependent antiproliferative effects"},
      {"measurement": "inhibition at 50 µM", "setting": "[4]; Homo sapiens, A549, 50 μM, 72 h", "result": "~65", "unit": "%"},
      {"measurement": "inhibition at 100 µM", "setting": "[4]; Homo sapiens, A549, 100 μM, 72 h", "result": "~80", "unit": "%"},
      {"measurement": "IC50", "setting": "[4]; Homo sapiens, A549", "result": "33 ± 5.7", "unit": "µM"},
      {"measurement": "antiproliferative activity in U251", "setting": "[5]", "result": "neither inhibitor had any effect"},
      {"measurement": "effect on proliferation of InEpC", "setting": "[6]", "result": "did not significantly affect the proliferation"},
      {"measurement": "effect on proliferation of NHLF", "setting": "[7]", "result": "did not significantly affect the proliferation"},
      {"measurement": "change in the different stages of cell cycle, HCT116", "setting": "[8]", "result": "no significative change"},
      {"measurement": "change in the different stages of cell cycle, HeLa", "setting": "[9]", "result": "no significative change"},
      {"measurement": "apoptotic cell population (Annexin V), HT29", "setting": "[10]", "result": "only a slight increase in apoptotic cell population"},
      {"measurement": "apoptotic effect in combination with chloroquine (Annexin V), HCT116", "setting": "[11]", "result": "increased the apoptotic effect"},
      {"measurement": "apoptotic cell population (Annexin V), HCT116", "setting": "[11]", "result": "only a slight increase in apoptotic cell population"}
    ]},
    {"smiles": "CC1=NN(c2ccc(C(=O)O)cc2)C(=O)/C1=C\\c1ccc[nH]1", "note": "[Compound 19, (Z)-4-(4-((1H-Pyrrol-2-yl)methylene)-3-methyl-5-oxo-4,5-dihydro-1H-pyrazol-1-yl)benzoic Acid]", "values": [
      {"measurement": "Kd", "setting": "[1]", "result": "4.94 ± 0.18", "unit": "µM"},
      {"measurement": "reaction with thiol-containing nucleophiles (HPLC)", "setting": "[2]", "result": "no evidence of reaction"},
      {"measurement": "antiproliferative activity in HT29", "setting": "[3]; 72 h", "result": "a certain degree of antiproliferative activity"},
      {"measurement": "IC50", "setting": "[3]", "result": "> 100", "unit": "µM"},
      {"measurement": "antiproliferative activity in A549", "setting": "[4]; 72 h", "result": "dose-dependent antiproliferative effects"},
      {"measurement": "IC50", "setting": "[4]; Homo sapiens, A549", "result": "41 ± 9.8", "unit": "µM"},
      {"measurement": "antiproliferative activity in U251", "setting": "[5]", "result": "neither inhibitor had any effect"},
      {"measurement": "effect on proliferation of InEpC", "setting": "[6]", "result": "did not significantly affect the proliferation"},
      {"measurement": "effect on proliferation of NHLF", "setting": "[7]", "result": "did not significantly affect the proliferation"},
      {"measurement": "change in the different stages of cell cycle, HCT116", "setting": "[8]", "result": "no significative change"},
      {"measurement": "change in the different stages of cell cycle, HeLa", "setting": "[9]", "result": "no significative change"},
      {"measurement": "apoptotic cell population (Annexin V), HT29", "setting": "[10]", "result": "only a slight increase in apoptotic cell population"},
      {"measurement": "apoptotic effect in combination with chloroquine (Annexin V), HCT116", "setting": "[11]", "result": "increased the apoptotic effect"},
      {"measurement": "apoptotic cell population (Annexin V), HCT116", "setting": "[11]", "result": "only a slight increase in apoptotic cell population"}
    ]}
  ]
}
